Source: article PMC10975543, “Redox Reactivity of Nonsymbiotic Phytoglobins towards Nitrite” (Molecules, 2024)

Target: T1, AtHb3 (Arabidopsis thaliana, UniProt Q67XG0)
T1 construct: gene GLB3; recombinant in E. coli BL21(DE3), N-terminal 8xHis-MBP tag, TEV cleaved; class 3 truncated Hb; ferric (met) heme form
T1 sequence (Q67XG0 1-175): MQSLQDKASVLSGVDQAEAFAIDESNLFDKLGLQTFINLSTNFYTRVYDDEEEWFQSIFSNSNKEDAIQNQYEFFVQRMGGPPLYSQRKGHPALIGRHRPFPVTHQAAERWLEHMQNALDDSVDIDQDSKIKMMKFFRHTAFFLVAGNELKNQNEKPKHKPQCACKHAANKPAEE
Experiment: UV-vis titration of the Soret band at […] nm
Type: binding

Structure (SMILES): O=NO [nitrite]
- Kd: 1500 ± 500 µM
